Here are results for 21 molecules from ChEMBL document CHEMBL1201862, “PubChem BioAssay data set” (2004).

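Exposure lasted 48 hours, with cells grown in 96-well plates and compounds tested at five concentrations. GI50 = concentration required for 50% inhibition of growth.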 Activity calls are given as the source filed them. Rule as the data show it: active = GI50 up to about 1.1 µM and inactive = higher.

Test systems include RXF 631; HOP-18; MDA-N; Hs-578T; PC-3; T47D; MDA-MB-231; BT-549; 786-0.
Assay in all cases: NCI-60 cell line screen, 48 h

In the case of `COc1ccccc1NC(=O)C(=O)C(C(=O)c1ccccc1F)C1OC(=O)c2ccccc21` (stereo unspecified), the GI50 with RXF 631 is 18.7 µM (inactive).
As for `Cc1n(CC(=O)c2ccc([N+](=O)[O-])cc2)c2c([n+]1CC(C)C)C(=O)c1ccccc1C2=O`, in the test with HOP-18, the GI50 is < 0.0184 µM (active).
Consider `c1ccc([P+](Cc2csnn2)(c2ccccc2)c2ccccc2)cc1`, for which the GI50 in the test on HOP-18 was > 100 µM (inactive).
As for `O=S(=O)(c1ccc(I)cc1)N(c1ccccc1)S(=O)(=O)C(F)(F)C(F)(F)C(F)(F)C(F)(F)F`, the GI50 with MDA-N was 60.1 µM (inactive); with Hs-578T, 30.2 µM (inactive); in the test with PC-3, 38.7 µM (inactive); in the test with T47D, 35.5 µM (inactive); in the test on MDA-MB-231, 23 µM (inactive); in the test with BT-549, > 100 µM (inactive). The GI50 in the test with 786-0 is 45.7 µM (inactive).
As for `COc1cccc(CC2Cc3ccccc3CC(=O)N2)c1` (stereo unspecified), the GI50 with MDA-N was 48.1 µM (inactive); with Hs-578T it was 21.4 µM (inactive); with PC-3, 31 µM (inactive); in the test with T47D, 41.5 µM (inactive); in the test on MDA-MB-231, 10 µM (inactive); in the test on BT-549, 28 µM (inactive).
With `O=C(CC1Sc2ccccc2NC1=O)Nc1ccccc1[N+](=O)[O-]` (stereo unspecified), the GI50 with RXF 631 and with HOP-18 was > 100 µM (inactive) in each case.
As for `O=NN(CC1(O)OCC(O)C(O)C1O)C(Cc1c[nH]c2ccccc12)C(=O)O` (stereo unspecified), the GI50 in the test on RXF 631 and with 786-0 was > 100 µM (inactive) in each case.
For `O=C(OCCO)C1CC2CC1C1(C2)OCCO1` (stereo unspecified), the GI50 with HOP-18 and with 786-0 was > 100 µM (inactive) in each case.
On to `COc1ccc(CCn2nccc2C)cc1`, for which the GI50 was > 100 µM (inactive) with MDA-N; > 100 µM (inactive) with Hs-578T; > 100 µM (inactive) in the test on PC-3; 74.1 µM (inactive) with T47D; > 100 µM (inactive) in the test on MDA-MB-231; > 100 µM (inactive) in the test on BT-549.
Turning to `NCCCCCC(CCN)SCC1OC(n2cnc3c(N)ncnc32)C(O)C1O` (stereo unspecified), the GI50 in the test with HOP-18 is 6.76 µM (inactive).
`COc1cccc(NC(=O)CC(=O)NN2C(=O)/C(=C/c3ccc(N(CCC#N)CCC#N)cc3)N=C2c2cc([N+](=O)[O-])ccc2Cl)c1`: the GI50 in the test with RXF 631 is > 100 µM (inactive).
As for `CC(=O)Oc1ccccc1[C@H]1CC(=O)C[C@H](c2ccccc2OC(C)=O)C12C(=O)c1ccccc1C2=O`, the GI50 in the test with MDA-N is 16 µM (inactive); with Hs-578T, 27.7 µM (inactive); in the test on PC-3, 17.5 µM (inactive); in the test with T47D, 40.2 µM (inactive); with MDA-MB-231 it was 27.1 µM (inactive); in the test on BT-549 it was 24.9 µM (inactive).
Consider `c1ccc2c(NCCCCCCCCNc3cccc4ccccc34)cccc2c1`, for which the GI50 in the test with RXF 631 was 18.9 µM (inactive); in the test with HOP-18, 20.1 µM (inactive); in the test with 786-0, 23.4 µM (inactive).
Turning to `Cc1nc2c(n1C)C(=O)c1nc(CBr)[nH]c(=O)c1C2=O`, the GI50 in the test with HOP-18 was > 100 µM (inactive).
For the molecule `CSCC[C@@H](NC(=O)[C@H](CC(C)C)NC(=O)C(Cc1cnc[nH]1)NC(=O)CNC(=O)[C@@H](NC(=O)[C@H](C)NC(=O)[C@H](Cc1cn(C=O)c2ccccc12)NC(=O)[C@H](CCC(N)=O)NC(=O)[C@@H](N)CC(N)=O)C(C)C)C(N)=O` (stereo partly specified), the GI50 in the test on HOP-18 is > 100 µM (inactive).
Regarding `COc1ccccc1-c1cc(O)c2cc(C)cnc2n1`, the GI50 with Hs-578T is 43.4 µM (inactive); in the test with T47D it was 63.4 µM (inactive); in the test on MDA-MB-231 it was 67.3 µM (inactive); in the test with BT-549, 45.5 µM (inactive).
Consider `C=C1C2=C(CCCC2)C(=O)OC12CCCCC2`, for which the results for the GI50 with RXF 631, in the test with HOP-18 and in the test with 786-0 were 72.1 µM (inactive), > 100 µM (inactive) and > 100 µM (inactive), respectively.
As to `Cc1[nH]c(=O)[nH]c(=O)c1/C=C/C(=O)NC(CO)CC(C)C` (stereo unspecified), in the test with HOP-18, the GI50 was 254 µM (inactive).
Turning to `Cc1ccc(SSCCCCCS(=O)O)cc1`, the GI50 with RXF 631 was 25.9 µM (inactive).
Take `CCCCSCCC(N)P(=O)(O)O` (stereo unspecified): the GI50 with MDA-N, with Hs-578T, in the test with PC-3, in the test on T47D and in the test on MDA-MB-231 was > 100 µM (inactive) in each case.
Consider `O=C(O)Cc1ccc(N2N=C(c3ccccc3)CC2=O)cc1`, for which the GI50 in the test on MDA-N, in the test on Hs-578T, in the test with PC-3, with T47D, with MDA-MB-231 and in the test with BT-549 was > 100 µM (inactive) each time.
